According to a melting point compilation (Tetko et al.; mined from patent text by program, amines drawn as free bases though some values may be those of a salt):

melting point [°C]	SMILES
119 to 121	Cc1nc(C)c(C)c(NCCNCC(O)COc2ccccc2)n1 (stereo unspecified)
147 to 149	c1ccc(-c2cnn3cc(-c4ccc(CCCN5CCOCC5)cc4)cnc23)cc1
151 to 152	CCN(CC)CCN(CC)C(=O)c1ccc(Nc2ccnc3c(C(F)(F)F)cccc23)cc1
225 to 227	O=C(c1ccc(-c2ncn[nH]2)cc1)N1Cc2cccn2Cc2ccccc21
60 to 63	O=C(NCCO)/C(=C/c1ccc(Cl)cc1)NC(=O)c1ccc(OCCc2ccc(F)cc2)cc1
104 to 106	O=S(=O)(c1ccccc1)n1c(-c2c(F)cccc2F)nc2ccccc21
209 to 210	CC(=O)Nc1c(C(=O)c2cc(-c3ccccc3)no2)[nH]c2cc(Cl)ccc12
151 to 155	Cc1c(CCNC(=O)OC(C)(C)C)c2cc(S(=O)(=O)c3ccccc3)ccc2n1C
66 to 68	CC(C)COC(NC(=O)OCc1ccccc1)C(=O)O (stereo unspecified)
88 to 88.5	COc1cc([N+](=O)[O-])ccc1-c1cccc(C(=O)O)c1
116 to 118	O=C(O)C(=O)c1cccc(OCc2ccccc2Cl)c1OCc1ccccc1Cl
223 to 224	Clc1ccc(N2CCN(Cc3n[nH]c4ccccc34)CC2)cc1
168 to 169	CCC(n1cncn1)C(O)(Cn1cncn1)c1ccc(Cl)cc1 (stereo unspecified)
134 to 138	CC(=O)c1cc2c(Sc3ccc(C)cc3)cncc2s1
186 to 188	CC(C)c1cccc(C(C)C)c1NC(=O)C1c2ccccc2COc2ccc([N+](=O)[O-])cc21 (stereo unspecified)
109 to 110	O=C(NCCN1CCC(Oc2ccc(F)cc2Cl)CC1)c1ccc(-n2cccn2)nc1
114 to 116	O=C(c1cc([N+](=O)[O-])ccc1Cl)c1sccc1Cl
57 to 59	CCCN(CCC)Sc1nc2ccccc2s1
112 to 115	Cc1ncc(-c2ccc([C@H](C)N3CC[C@](CC(C)(C)O)(c4ccccc4)OC3=O)cc2)cn1
195 to 197	NC1c2ccccc2CC12C(=O)Nc1ccccc12 (stereo unspecified)
125 to 126	CCOC(=O)c1cc(Br)cc2c(=O)c(OCCCN3CCN(Cc4ccc5ccccc5n4)CC3)c(-c3ccccc3)oc12
246 to 248	CC(C)c1[nH]n(-c2c(Cl)cc(Cl)cc2Cl)c2nc(C(O)c3ccccc3)nc(=O)c1-2 (stereo unspecified)
45 to 46	O=C(NCCNCc1ccccc1)c1ccc(Cl)cn1

More lines, now with the values behind:

SMILES	melting point [°C]
C#CCON=C(CCC)C1=C(O)CC(c2ccc(C(=O)SC)cc2)CC1=O (stereo unspecified)	95 to 96
CCCCCCCCCCCCCCc1ccc(S(=O)(=O)Cl)cc1	32 to 33
Cc1nnc(-c2ccc3occ(-c4ccc(S(C)(=O)=O)c(Cl)c4)c3c2)o1	204 to 205
O=C1NC(=S)SC1=Cc1ccc2c(c1)N(OCc1ccc(Cl)c(Cl)c1)C(=O)CO2	> 300
CCN(CC)C(=O)CCc1ccc(N)c([N+](=O)[O-])c1	98 to 99
C[C@@H]1C[C@](C)(O)[C@H](C)N1c1ccc(C#N)c(F)c1	125 to 128
Cc1nnc2n1N=C(c1ccc3c(c1)NC(=O)CO3)C(C)(C)S2	249 to 250
CCCCCn1c2ccc(C(=O)O)cc2c2ccc(SC)cc21	211 to 212
Cn1nc(Cl)cc(Nc2ccn(C3CN(C(=O)OC(C)(C)C)C3)n2)c1=O	154 to 156
COc1ccc2c(-c3c(-c4ccccn4)nn4c3CCCCC4)ccnc2c1	127 to 129
O=Cc1cc(O)c2c(c1)C(=O)c1cccc(O)c1C2=O	198 to 200
NC(N)=Nc1nc(-c2ccc(-c3nc(N)n[nH]3)o2)cs1	> 300
COc1cc(NC(=O)CCCCCN2CCN(C3CCCCC3)CC2)c2nccc(C)c2c1	109 to 110
CCc1c(Sc2cc(C)cc(C)c2)[nH]c(=O)[nH]c1=O	224 to 225
Cc1ccc(C(=O)O)c(Sc2nc(C)c(CC(=O)O)s2)n1	223 to 225
O=C1COC(C#CC2CC2)(C(F)(F)F)c2cc(Cl)ccc2N1 (stereo unspecified)	200
CN1CCC(C2c3ccccc3C=Cc3ccccc32)CC1	127
Cc1nc(C)c(C(=O)Nc2cccc3c2C(C)CC3(C)C)s1 (stereo unspecified)	117 to 118
CC(C)(C)c1cc(C(O)C#Cc2ccc(C(=O)O)c(O)c2)cc(C(C)(C)C)c1OCOCC[Si](C)(C)C (stereo unspecified)	146 to 147
NC(=NO)c1ccc(-c2ccc(O)cc2)o1	157 to 158
CCOc1cc2cc(C(=O)O)cc(-c3ccnc(Cl)c3)c2cc1OCC	> 250
c1ccc2c(Cn3c(-c4ccc5c(c4)OCO5)nc4ccccc43)cccc2c1	166 to 168
COC(=O)C(=O)C1C(=O)C(=O)C(CCCCCCC(=O)O)C1=O (stereo unspecified)	127 to 129
COc1ccc2c(c1)Oc1cccc([N+](=O)[O-])c1N2	197 to 199

SMILES	melting point [°C]
N#Cc1ccc(Oc2ccc(N)c(CN)c2)cc1	80 to 82
Cc1cc(C(N)=O)ncc1C(SCCC=C(F)F)c1c(F)ccc(F)c1F (stereo unspecified)	97 to 98
CCOC(=O)C(=O)Nc1c([N+](=O)[O-])cc(Br)c2cccnc12	213 to 215
CCCCCCS(=O)(=O)c1nn2c(=O)cc(C)nc2s1	111 to 115
COc1ccc2ncccc2c1C1OC(=O)NC1=O (stereo unspecified)	144 to 146
CN(C)Cc1ccc(CSCCNC(=C[N+](=O)[O-])NCCCCCCCCCCCCNC(=C[N+](=O)[O-])NCCSCc2ccc(CN(C)C)o2)o1	74 to 76
CNN1c2c(cc(Oc3ccc(F)cc3F)c(=O)n2NC)C=NC1NC1CCOCC1 (stereo unspecified)	80.5 to 89.9
CCCC(C)n1sc2ccccc2c1=O (stereo unspecified)	52 to 54
O=Cc1ccc(-c2cnco2)[nH]1	152 to 153
CSc1ncc(Cc2ccc(C)nc2)c(=O)[nH]1	197 to 198
CCCn1c(=S)nc(NCc2ccncc2)c2[nH]c(C3CC3)nc21	204 to 210
O=C(O)CN1C(=O)c2cccc([N+](=O)[O-])c2C1=O	200 to 202
CCCn1c(=O)c2[nH]c(C34CCC(C)(C(=O)C3=O)C4(C)C)nc2n(CCC)c1=O (stereo unspecified)	200 to 201
COc1ccc2c(C3=CCNCC3)c[nH]c2c1	193 to 194
CCN1C(=O)C(C)(C)C(=O)N(C)c2cc(OCCCn3c(-c4ccccc4)cc4ccccc43)ccc21	140 to 142
C#CCN(Cc1cc2c(=O)n(C)c(CN3CCCCC3)nc2cc1Cl)c1ccc(C(=O)OC(C)(C)C)cc1	162 to 163
O=S(=O)(c1ccc(I)cc1)N1CCCC(c2ccc(Cl)c(C(F)(F)F)c2)=N1	153 to 154
O=C(Nc1ccc(-n2nc(C(F)(F)F)cc2C(F)(F)F)cc1)c1cccc([N+](=O)[O-])c1	203 to 204
CCCCCCCCCCCCCCCCOC(=O)CCCCCCCCCCCCC	54 to 56
COCCOCCOc1cc(N)c(C#N)cc1[N+](=O)[O-]	106 to 108
O=C1CC(Nc2ccc([N+](=O)[O-])cc2)=NN1c1c(Cl)cc(Cl)cc1Cl	295 to 298
N#Cc1ccc(C=NO)c(Cl)c1	177 to 179
COC(=O)c1ccc(OC(=O)c2ccc(OC)c(C34CC5CC(CC(C5)C3)C4)c2)cc1O	125 to 127
Cc1cc(N2CCCC2)c([N+](=O)[O-])c(Cl)n1	151 to 156
